Measured values as given in patent publication US9872493B2, “Method for promoting plant growth” (SUMITOMO CHEMICAL COMPANY, LIMITED, priority 2012, dated 2018).

Assays:
[1] = test system: Rice (Variety: Nipponbare); experiment: Test for evaluating promotion of root growth by hydroponics of rice (Test Examples 1-3); format: in vivo
Experimental: Rice (Variety: Nipponbare)
(§1) A DMSO solution, which contained one of the compounds 14, 18, 21, 23, 26, 28, 29, 30, 35, 36, 37, 39 and 40 of the present invention at a concentration of 100,000 ppm, was added to Hoagland hydroponic solution (Hoagland and Arnon, California Agricultural Experiment Station 1950 Circular 347 pp. 34) of ¼-fold concentration at a volume ratio of 1/10,000. In this manner, hydroponic solutions containing one of the compounds 14, 18, 21, 23, 26, 28, 29, 30, 35, 36, 37, 39 and 40 of the present invention at 10 ppm were prepared respectively. As an untreated control plot, a hydroponic solution obtained by adding DMSO to Hoagland hydroponic solution of ¼-fold concentration at a volume ratio of 1/10,000 was used.
(§2) Rice seeds were soaked in a 1% aqueous sodium hypochlorite solution for 10 minutes, then soaked in a 70% ethanol solution for surface sterilization, and then washed with distilled water. The sterilized seeds were soaked in a hydroponic solution containing the test compound described above at 10 ppm and incubated in a dark place for 3 days at 28° C. to perform treatment for hastening germination.
(§3) Thereafter, 30 ml of hydroponic solution containing the test compound at 10 ppm was dispensed in a plastic tube (diameter of 20 mm×height of 113 mm) of which the side was covered with cardboard to block light. A float prepared using a styrene board and vinyl mesh was floated, and the rice seeds that had undergone the treatment for hastening germination were placed on the float on the surface of the hydroponic solution. The seeds were cultivated for 3 days at 26° C., an illuminance of 4,000 lux of the top surface of the tube, a humidity of 50%, and a day length of 16 hours.
The nursery plants of rice obtained after cultivating were measured in terms of the length of seminal root by using WinRHIZO system (manufactured by Regent Instruments Inc). For each test plot, an average of the measured values of the seminal root of 4 or 5 individuals were determined.
as §1, with “compounds 7, 8, 9, 10, 12, 17, 20,” for “compounds 14, 18,”, “21, 25, 27,” for “21, 23, 26,”, “30, 34,” for “30,”, “37, 38,” for “37,”, “of 10,000” for “of 100,000”, “at 1” for “at 10”
as §2, with “at 1” for “at 10”
as §3, with “1” for “10”
The nursery plants of rice obtained after cultivation were measured in terms of the length of seminal root by using WinRHIZO system (manufactured by Regent Instruments Inc). […]

[2] = test system: Nicotiana benthamiana; experiment: Test for evaluating growth promotion under low-temperature stress by hydroponics of Nicotiana benthamiana (Test Examples 4-6); format: in vivo; conditions: 7 days at 1.5±1.0° C. low-temperature stress, then 3 days at 22° C., green leaf area vs untreated control, read-out: value of a relative leaf area (equation (1)); for relative green leaf area after low-temperature stress at 1 ppm: compound at 1 ppm; for relative green leaf area after low-temperature stress at 0.1 ppm: compound at 0.1 ppm; for relative green leaf area after low-temperature stress at 10 ppm: compound at 10 ppm
Experimental: A DMSO solution, which contained one of the compounds 5, 14, 22, 23, 24, 25, 26, 28, 30, 31, 32, 33, 34, 35, 38, 39 and 40 of the present invention at a concentration of 10,000 ppm, was prepared. The DMSO solution of the compound of the present invention was added at a volume ratio of 1/1,000 to the Murashige•Scoog medium of a ½-fold concentration (a medium containing 2.3 g of mixed salts (manufactured by Wako Pure Chemical Industries, Ltd.), 200 mg of Myo-inositol (manufactured by Sigma-Aldrich Co. LLC.), 2 mg of nicotinic acid (manufactured by Wako Pure Chemical Industries, Ltd.), 2 mg of pyridoxine hydrochloride (manufactured by Wako Pure Chemical Industries, Ltd.), 20 mg of thiamine hydrochloride (manufactured by Wako Pure Chemical Industries, Ltd.), 20 g of sucrose (manufactured by Wako Pure Chemical Industries, Ltd.), and 1 g of MES (manufactured by DOJINDO LABORATORIES) per 1 L of water and having pH adjusted to 5.8), thereby preparing a medium containing the compound of the present invention at a concentration of 10 ppm.
Seeds of Nicotiana benthamiana were seeded in the 5 μL of the medium and cultured overnight at 22° C. Thereafter, 45 μL of the medium containing the compound of the present invention at a concentration of 10 ppm was added thereto, and the seeds are cultivated for 7 days at 22° C., an illuminance of 4,000 lux, and a day length of 16 hours, thereby the nursery plants raised from the Nicotiana benthamiana were treated with the compound.
Moreover, instead of the above medium a test plot, which was obtained by performing the same treatment by using a medium prepared by adding DMSO to the Murashige•Scoog medium of ½-fold concentration at a volume ratio of 1/1,000, was used as a control plot not treated with the compound.
The nursery plants of the Nicotiana benthamiana treated with the compound were subjected to low-temperature treatment by being cultivated for 7 days at 1.5±1.0° C., an illuminance of 2,000 lux, and a day length of 16 hours.
The nursery plants of the Nicotiana benthamiana having undergone the low-temperature stress treatment were cultivated for 3 days at 22° C., an illuminance of 4,000 lux, and a day length of 16 hours. Thereafter, the area of green leaf was quantified by Scanalyzer HTS (manufactured by LemnaTec GmbH). Moreover, the value of the control plot not treated with the compound that had not yet been subjected to the low-temperature stress treatment was measured in the same manner. A value of a relative leaf area was calculated based on the following equation (1), and if the value of a relative leaf area was 5 or greater, the compound was evaluated to have a mitigating effect. As a result of the evaluation, it was confirmed that when the plant was treated with one of the compounds 5, 14, 22, 23, 24, 25, 26, 28, 30, 31, 32, 33, 34, 35, 38, 39 and 40 of the present invention at 10 ppm, the value of a relative leaf area was 5 or greater, compared to the area of green leaf of the control plot not treated with compound. Accordingly, it was confirmed that the treatment using the compound of the present invention brings about a growth promotion effect. Relative leaf area=100*(a green area of a plot treated with the compound of the present invention−a green area of a control plot not treated with the compound of the present invention)/(a green area of a control plot not treated with the compound of the present invention that has not yet been subjected to low-temperature stress treatment−a green area of a control plot not treated with the compound of the present invention) Equation (1): […]
A DMSO solution, which contained one of the compounds 6, 7, 8, 11, 12, 15, 19, 23, 24, 25, 28, 30, 31, 33, 34, 36, 37, 38 and 39 of the present invention at a concentration of 1,000 ppm, was prepared. […]

`NC(=O)c1csc2cccc(C(F)(F)F)c12` [Compound 19] was tested, and the “length of seminal root compared with the untreated control plot (in words)” value ([1]; 0.1 ppm) was “obviously longer” and the relative green leaf area after low-temperature stress at 1 ppm [2] was ≥ 5%.

`Cc1sc2ccccc2c1C(=O)O` [Compound 20] was tested, and the “length of seminal root compared with the untreated control plot (in words)” value ([1]; 0.1 ppm) was “obviously longer”, the “length of seminal root compared with the untreated control plot (in words)” value ([1]; 1 ppm) was “obviously longer” and the relative green leaf area after low-temperature stress at 0.1 ppm [2] was ≥ 5%.

`NC(=O)c1c(C(F)(F)F)sc2ccccc12` [Compound 23] was tested, and the “length of seminal root compared with the untreated control plot (in words)” value ([1]; 10 ppm) was “obviously longer”, the relative green leaf area after low-temperature stress at 1 ppm [2] was ≥ 5% and the relative green leaf area after low-temperature stress at 10 ppm [2] was ≥ 5%.

`O=C(Nc1ccccc1)c1c(C(F)(F)F)sc2ccccc12` [Compound 25] was tested, and the “length of seminal root compared with the untreated control plot (in words)” value ([1]; 1 ppm) was “obviously longer”, the relative green leaf area after low-temperature stress at 1 ppm [2] was ≥ 5% and the relative green leaf area after low-temperature stress at 10 ppm [2] was ≥ 5%.

For `O=C(NCc1ccccc1)c1c(C(F)(F)F)sc2ccccc12` [Compound 26], the “length of seminal root compared with the untreated control plot (in words)” value ([1]; 0.1 ppm) was “obviously longer”, the “length of seminal root compared with the untreated control plot (in words)” value ([1]; 10 ppm) was “obviously longer” and the relative green leaf area after low-temperature stress at 0.1 ppm [2] was ≥ 5%. For the same compound, the relative green leaf area after low-temperature stress at 10 ppm [2] was ≥ 5%.

`COC(=O)c1csc2cc(C(F)(F)F)ccc12` [Compound 28] was tested, and the “length of seminal root compared with the untreated control plot (in words)” value ([1]; 0.1 ppm) was “obviously longer”, the “length of seminal root compared with the untreated control plot (in words)” value ([1]; 1 ppm) was “obviously longer” and the “length of seminal root compared with the untreated control plot (in words)” value ([1]; 10 ppm) was “obviously longer”. The relative green leaf area after low-temperature stress at 0.1 ppm [2] was ≥ 5%, the relative green leaf area after low-temperature stress at 1 ppm [2] was ≥ 5% and the relative green leaf area after low-temperature stress at 10 ppm [2] was ≥ 5%.

With `CCOC(=O)c1csc2cc(C(F)(F)F)ccc12` [Compound 29] the “length of seminal root compared with the untreated control plot (in words)” value ([1]; 0.1 ppm) was “obviously longer”, the “length of seminal root compared with the untreated control plot (in words)” value ([1]; 1 ppm) was “obviously longer” and the “length of seminal root compared with the untreated control plot (in words)” value ([1]; 10 ppm) was “obviously longer”. The relative green leaf area after low-temperature stress at 0.1 ppm [2] was ≥ 5%.

`NC(=O)c1csc2cc(C(F)(F)F)ccc12` [Compound 30] was tested, and the “length of seminal root compared with the untreated control plot (in words)” value ([1]; 0.1 ppm) was “obviously longer”, the “length of seminal root compared with the untreated control plot (in words)” value ([1]; 1 ppm) was “obviously longer” and the “length of seminal root compared with the untreated control plot (in words)” value ([1]; 10 ppm) was “obviously longer”. The relative green leaf area after low-temperature stress at 0.1 ppm [2] was ≥ 5%, the relative green leaf area after low-temperature stress at 1 ppm [2] was ≥ 5% and the relative green leaf area after low-temperature stress at 10 ppm [2] was ≥ 5%.

`CNC(=O)c1csc2cc(C(F)(F)F)ccc12` [Compound 31] was tested, and the “length of seminal root compared with the untreated control plot (in words)” value ([1]; 0.1 ppm) was “obviously longer”, the relative green leaf area after low-temperature stress at 0.1 ppm [2] was ≥ 5% and the relative green leaf area after low-temperature stress at 1 ppm [2] was ≥ 5%. The relative green leaf area after low-temperature stress at 10 ppm [2] was ≥ 5%.

`O=C(O)c1csc2c(C(F)(F)F)cccc12` [Compound 34] was tested, and the “length of seminal root compared with the untreated control plot (in words)” value ([1]; 0.1 ppm) was “obviously longer”, the “length of seminal root compared with the untreated control plot (in words)” value ([1]; 1 ppm) was “obviously longer” and the relative green leaf area after low-temperature stress at 0.1 ppm [2] was ≥ 5%. For the same compound, the relative green leaf area after low-temperature stress at 1 ppm [2] was ≥ 5% and the relative green leaf area after low-temperature stress at 10 ppm [2] was ≥ 5%.

With `COC(=O)c1csc2c(C(F)(F)F)cccc12` [Compound 35] the “length of seminal root compared with the untreated control plot (in words)” value ([1]; 0.1 ppm) was “obviously longer”, the “length of seminal root compared with the untreated control plot (in words)” value ([1]; 1 ppm) was “obviously longer” and the “length of seminal root compared with the untreated control plot (in words)” value ([1]; 10 ppm) was “obviously longer”. The relative green leaf area after low-temperature stress at 0.1 ppm [2] was ≥ 5% and the relative green leaf area after low-temperature stress at 10 ppm [2] was ≥ 5%.

In the case of `CCOC(=O)c1csc2c(C(F)(F)F)cccc12` [Compound 36], the “length of seminal root compared with the untreated control plot (in words)” value ([1]; 0.1 ppm) is reported as “obviously longer”, the “length of seminal root compared with the untreated control plot (in words)” value ([1]; 1 ppm) is reported as “obviously longer” and the “length of seminal root compared with the untreated control plot (in words)” value ([1]; 10 ppm) is reported as “obviously longer”. The relative green leaf area after low-temperature stress at 0.1 ppm [2] was ≥ 5% and the relative green leaf area after low-temperature stress at 1 ppm [2] was ≥ 5%.

For `NC(=O)c1csc2c(C(F)(F)F)cccc12` [Compound 37], the “length of seminal root compared with the untreated control plot (in words)” value ([1]; 0.1 ppm) was “obviously longer”, the “length of seminal root compared with the untreated control plot (in words)” value ([1]; 1 ppm) was “obviously longer” and the “length of seminal root compared with the untreated control plot (in words)” value ([1]; 10 ppm) was “obviously longer”. The relative green leaf area after low-temperature stress at 1 ppm [2] was ≥ 5%.

With `CNC(=O)c1csc2c(C(F)(F)F)cccc12` [Compound 38] the “length of seminal root compared with the untreated control plot (in words)” value ([1]; 0.1 ppm) was “obviously longer”, the “length of seminal root compared with the untreated control plot (in words)” value ([1]; 1 ppm) was “obviously longer” and the relative green leaf area after low-temperature stress at 1 ppm [2] was ≥ 5%. The relative green leaf area after low-temperature stress at 10 ppm [2] was ≥ 5%.

In the case of `O=C(Nc1ccccc1)c1csc2c(C(F)(F)F)cccc12` [Compound 39], the “length of seminal root compared with the untreated control plot (in words)” value ([1]; 0.1 ppm) is reported as “obviously longer”, the “length of seminal root compared with the untreated control plot (in words)” value ([1]; 1 ppm) is reported as “obviously longer” and the “length of seminal root compared with the untreated control plot (in words)” value ([1]; 10 ppm) is reported as “obviously longer”. The relative green leaf area after low-temperature stress at 1 ppm [2] was ≥ 5% and the relative green leaf area after low-temperature stress at 10 ppm [2] was ≥ 5%.
